What was measured:
[1] = test system: 4T1 murine breast cancer cells; experiment: Example S: in vitro anticancer screen, 4T1 cells, Wst1; assay type: cell-based, mouse; conditions: Mus musculus, 4T1, 18 h, 18 hr, Wst1; for viability at 1 µM: read-out: 4T1 1 μM, percent of cancer cell survival relative to vehicle treated cells; for viability at 5 µM: read-out: 4T1 5 μM, percent of cancer cell survival relative to vehicle treated cells
Method: Anticancer activity against 4T1 murine breast cancer cells cancer cells was assessed in vitro by seeding 1×10^4 cells/well in flat bottom culture plates, then treating with selected 1 μM or 5 μM concentrations of compounds for 18 hr after plating. Then 10 μL of Wst1 dye reagent, a tetrazolium dye indicator for […], was added/well and incubated approximately 2 hr before being assayed on the Biotek EL800 Universal microplate reader (450 nm, reference 630 nm).
Numerical values in the Table 37 represent percent of cancer cell survival relative to vehicle treated cells at the indicated concentrations, with values under 100 indicating anticancer cytotoxic activity at the drugs concentrations tested.

THP-1 cells = experiment: Example D: LPS-triggered THP-1 cell death assay, acute/5-hour and chronic/48-hour; assay type: cell-based, Human; conditions: 10 ng/ml LPS, 0.1 μM test compound, 48 hours
Method: Compounds of the invention were tested at 0.1 μM versus AC in the LPS-triggered THP-1 cell death assay. Both acute/5-hour and chronic/48-hour phases of cell death were assessed. Compounds were screened in batches with DMSO as the negative control and AC as the high activity control.

[2] = test system: PC-3 prostate cancer cells; experiment: Example T: sensitisation of PC-3 cells to doxorubicin, oxaliplatin, paclitaxel or vincristine, Wst1; assay type: cell-based, human; conditions: PC-3 cells, 72 hours

| SMILES | viability at 1 µM [1] | viability at 5 µM [1] | Viable cell percent change, Chronic/48-hour, Mean (THP-1 cells) | also measured |
| --- | --- | --- | --- | --- |
| COCCNc1ccnc2ccccc12 [BR, N-(2-Methoxyethyl)quinolin-4-amine] | 106% | 122% |  |  |
| c1ccc2c(NCCN3CCOCC3)ccnc2c1 [BS, N-[2-(Morpholin-4-yl)ethyl]quinolin-4-amine] | 105% | 117% |  |  |
| O=C(NCCCNc1ccnc2ccccc12)c1ccccc1 [BT, N-[3-(Quinolin-4-ylamino)propyl]benzamide] | 119% | 121% | 66.98% |  |
| CCN(CC)CCNC(=O)c1ccc(Nc2ccnc3ccccc23)cc1 [BW, N-(2-Diethylaminoethyl)-4-(quinolin-4-ylamino)benzamide] | 123% | 236% | 36.08% |  |
| CN(C)c1ccc(CNc2ccnc3ccccc23)cc1 [BX, N-(4-Dimethylaminobenzyl)quinolin-4-amine] | 116% | 116% | 25.10% |  |
| c1ccc2c(NCc3ccncc3)ccnc2c1 [BZ, N-(Pyridin-4-ylmethyl)quinolin-4-amine] | 122% | 260% | 30.72% |  |
| CCCCCCOCCCCCCCC(=O)NCc1ccncc1 [CA, N-(Pyridin-4-ylmethyl)-8-(hexyloxy)octanamide] | 108% | 109% |  |  |
| CCCCCCOCCCCCCCC(=O)Nc1ccc2ncccc2c1 [CB, N-(Quinolin-6-yl)-8-(hexyloxy)octanamide] | 105% | 102% | 10.62% |  |
| CCCCCCOCCCCCCCCn1cnc2ccccc21 [CC, 1-[8-(Hexyloxy)octyl]-1H-benzimidazole] | 110% | 99.5% |  |  |
| CCCCCCCCCCOc1cccc(CNc2ncnc3ccccc23)c1 [CG, N-[3-(Decyloxy)benzyl]quinazolin-4-amine] |  |  | 54.66% |  |
| CCCCCCOCCCCCCCCNc1ccnc2c(C(F)(F)F)cccc12 [CN, N-[8-(Hexyloxy)octyl]-8-(trifluoromethyl)quinolin-4-amine] | 32.5% | 18.8% | 3.70% |  |
| c1ccc(-c2ccc(Nc3ccnc4ccccc34)cc2)cc1 [DC, N-(Biphenyl-4-yl)quinolin-4-amine] | 110% | 96.7% | 87.66% |  |
| CCCCCC(=O)Nc1ccc(Nc2ccnc3ccccc23)cc1 [DG, N-[4-(Quinolin-4-ylamino)phenyl]hexanamide] | 105% | 94.7% | 37.90% |  |
| CCCCCC(=O)Nc1cccc(Nc2ccnc3ccccc23)c1 [DH, N-[3-(Quinolin-4-ylamino)phenyl]hexanamide] | 96.6% | 112% | 50.89% |  |
| COc1ccc(Nc2ccnc3ccccc23)cc1 [DI, N-(4-Methoxyphenyl)quinolin-4-amine] | 108% | 126% | 82.24% |  |
| CCCCOc1ccc(Nc2ccnc3ccccc23)cc1 [DK, N-(4-Butoxyphenyl)quinolin-4-amine] | 102% | 87.6% | 73.60% |  |
| c1ccc(CNc2ccnc3ccccc23)cc1 [DQ, N-Benzylquinolin-4-amine] | 99.5% | 122% | 32.31% |  |
| CCCCCCCCCCOc1ccc(CNc2ccnc3ccccc23)cc1 [DT, N-[4-(Decyloxy)benzyl]quinolin-4-amine] |  |  | 16.12% |  |

| SMILES | viability at 1 µM [1] | viability at 5 µM [1] | Viable cell percent change, Chronic/48-hour, Mean (THP-1 cells) | also measured |
| --- | --- | --- | --- | --- |
| c1ccc(CCOc2cccc(CNc3ccnc4ccccc34)c2)cc1 [DV, N-(3-Phenethoxybenzyl)quinolin-4-amine] |  |  | 24.69% | viability at 0.4 µM ([2]; Homo sapiens, compound 0.4 μM alone, Wst1, vehicle = 100, read-out: No Chemo: percent cell survival): 31.6%; Doxorubicin 3.5 μM: percent cell survival ([2]; compound 0.4 μM + doxorubicin 3.5 μM, chemotherapy agent alone normalized to 100%): 76.7%; Oxaliplatin 100 μM: percent cell survival ([2]; compound 0.4 μM + oxaliplatin 100 μM, chemotherapy agent alone normalized to 100%): 61.9%; Paclitaxel 50 μM: percent cell survival ([2]; compound 0.4 μM + paclitaxel 50 μM, chemotherapy agent alone normalized to 100%): 23.3%; Vincristine 100 nM: percent cell survival ([2]; compound 0.4 μM + vincristine 100 nM, chemotherapy agent alone normalized to 100%): 32.2% |
| O=C(NCCCCNc1ccnc2ccccc12)c1ccccc1 [DW, N-[4-(Quinolin-4-ylamino)butyl]benzamide] | 102% | 194% | 73.97% |  |
| O=C(NCCCCCCNc1ccnc2ccccc12)c1ccccc1 [DX, N-[6-(Quinolin-4-ylamino)hexyl]benzamide] | 112% | 105% | 59.95% |  |
| CCCCCCOc1ccccc1C(=O)NCCCCNc1ccnc2ccccc12 [ED, 2-(Hexyloxy)-N-[4-(quinolin-4-ylamino)butyl]benzamide] |  |  | 81.40% |  |
| c1ccc(CNc2ccnc3ccccc23)nc1 [EH, N-(Pyridin-2-ylmethyl)quinolin-4-amine] | 116% | 128% | 32.85% |  |
| CCCCCCOCCCCCCCCNc1ccc2ncccc2c1 [EK, N-[8-(Hexyloxy)octyl]quinolin-6-amine] | 116% | 114% | 15.50% |  |
| CCCCCCOCCCCCCCCNc1cccc2cccnc12 [EM, N-[8-(Hexyloxy)octyl]quinolin-8-amine] | 106% | 93% |  |  |
| CCCCCCOCCCCCCCCNc1cc(C(F)(F)F)nc2ccccc12 [EN, N-[8-(Hexyloxy)octyl]-2-(trifluoromethyl)quinolin-4-amine] | 93.3% | 89.8% | 6.64% |  |
| CCCCC(OC(C)=O)c1nc2c(N)nc3ccccc3c2n1CC(C)C (stereo not shown) [FC, 1-(4-Amino-1-isobutyl-1H-imidazo[4,5-c]quinolin-2-yl)pentyl acetate] | 115% | 123% |  |  |
| CCCCCCCCCCCCCCCCn1cnc2cnccc21 [FM, 1-Hexadecyl-1H-imidazo[4,5-c]pyridine] |  |  | 9.74% |  |
| COCCCCCCCCNc1ccncc1 [FN, N-(8-Methoxyoctyl)pyridin-4-amine] | 92.9% | 79.4% | 3.54% |  |
| CCCCCCOCCCCCCCCNc1cccnc1 [FO, N-[8-(Hexyloxy)octyl]pyridin-3-amine] | 106% | 146% | 20.18% |  |
| CCCCCCOCCCCCCCCNc1ccccn1 [FP, N-[8-(Hexyloxy)octyl]pyridin-2-amine] | 116% | 116% | 30.44% |  |
| CCCCCCOCCCCCCCCNc1ncccn1 [FQ] | 110% | 98% | 25.62% |  |
| CCCCCCOCCCCCCCCNc1nccc2ccccc12 [FS, N-[8-(Hexyloxy)octyl]isoquinolin-1-amine] | 122% | 107% |  |  |
| CCCCCCOCCCCCCCCNc1cnc2ccccc2n1 [FU, N-[8-(Hexyloxy)octyl]quinoxalin-2-amine] | 118% | 106% |  |  |
| CCCCCCOCCCCCCCCNc1cnccn1 [FV, N-[8-(Hexyloxy)octyl]pyrazin-2-amine] | 104% | 101% | 17.51% |  |
| CCCCCCOCCCCCCCCn1cnc2cccnc21 [FX, 3-[8-(Hexyloxy)octyl]-3H-imidazo[4,5-b]pyridine] | 112% | 96.6% |  |  |
